Experimental data published in patent US20170209499A1, “Propolis and Extracts Thereof for the Treatment of Skin Cancers and Improvement of Skin Health” (Manuka Health New Zealand Limited, priority 2014, published 2017).
Where “and” joins values, the source holds several entries; their conditions need not be identical. Equal entries are not always repeated.

Key:
Type in all cases: cell-based
[1] = system: human melanoma cell line A-2058; assay: MTT cell proliferation assay, human melanoma cell line A-2058; settings: for Mean OD: MTT Optical Density at 570 nm
From the text: This example describes the in vitro bioassay used for determining the anti-proliferative activity of test compounds and cyclodextrin-encapsulated propolis complexes against human skin cancer cell lines. The present example tests anti-proliferative efficacy against the human melanoma cell line, A-2058. The cyclodextrin-encapsulated propolis complexes tested are those described in Example 1. The NZ propolis was the same propolis used to manufacture the cyclodextrin complexes CD1-CD3. The Brazilian Green propolis was the same propolis used to manufacture the cyclodextrin complex CD4. The test samples were dissolved in 15% Ethanol (EtOH)/HBSS to make a working solution, which was then diluted 10 times to give a final concentration in the cells of 50 μg/ml unless indicated otherwise.
(§1) The three human skin cancer cell lines were: • 1) Human Melanoma cell line (A-2058). • 2) Human Epidermoid (Squamous) Carcinoma cell line (A-431). • 3) Human Basal Cell Carcinoma cell line (TE 354.T).
(§2) The cell lines were revived from cryostorage and cultured in the presence of the test and reference samples. An MIT assay was then performed on the cultures to determine the effect of the samples on the cell viability and proliferation. The percentage standard error of the mean was assessed and extreme outliers were removed if the SEM%>15. Preliminary statistical significance was assessed with an independent Student t-test at α<0.05 (with and without outliers). The methodology was based on the procedures reported by: • Ahn, N G, Campbell J S (1993). […] Proc Natl Acad Sci. 90: 5143-5147. • Galan-Cobo, A et al (2014). Functional inhibition of aquaporin-3 with a gold-based compound induces blockage of cell proliferation. J Cellul. Physiol. 229: 1787-1801. • Roomi, M W, Kalinovsky, J et al (2013) Effect of a nutrient mixture on matrix metalloproteinase-9 dimers in various human cancer cell lines. Inter 3 Oncol. 44: 936-942. • Huang, H C, Lin, M K et al (2013). Cardenolides and bufadienolide glycosides from Kalanchoe tubiflora and evaluation of cytotoxicity. Planta Medica. 79: 1362-1369. • Tilli, C M L J, Stavast-Kooy, A J W et al (2003). The garlic-derived organosulfur component ajoene decreases basal cell carcinoma tumor size by inducing apoptosis. Arch Dermatol Res. 295: 117-123.
• 1. Human melanoma cell line (A-2058, ATCC CRL11147) was obtained from ATCC, Bethesda, Md., USA. • 2. Human squamous (epidermoid) carcinoma cell line (A-431, ATCC CRL1555) was obtained from ATCC, Bethesda, Md. USA. • 3. Human basal cell carcinoma cell line (TE 354.T, ATCC CRL7762) was obtained from ATCC, Bethesda, Md., USA. • 4. Dulbecco's Modified Eagle's Medium (DMEM) was obtained from GIBCO (12100-038). 10% Foetal Bovine Serum (FBS), 100 U/ml Penicillin and […] Streptomycin were added before use. • 5. Penicillin-streptomycin solution, stored at −20° C. consisting of 10000 units/ml penicillin and 10 mg/ml streptomycin in 0.9% NaCl was obtained from Sigma (#P-0781). • 6. Trypsin-EDTA solution consisting of 0.25% Trypsin/EDTA was obtained from Invitrogen (#15400054). • 7. Phosphate buffered saline (PBS) was prepared in-house. • 8. Hanks Balanced Salt Solution (HBSS), stored at 4° C. was obtained from GIBCO (#14185-052). • 9. Foetal Bovine Serum (FBS) stored at −20° C. was obtained from GIBCO (#10091-148). • 10. MTT Reagent, 100 mg/vial, was obtained from Sigma (M-2128) and then dissolved in PBS at 10 mg/ml and stored at −20° C. A 5 mg/ml MTT solution was prepared in PBS and stored at 4° C. as the working solution. • 11. MU lysis buffer: 10% sodium dodecyl sulphate (SDS)/45% Dimethyl Formamide was prepared by dissolving 20 g SDS in 100 ml of double-distilled water (DDW), and then adding 90 ml of Dimethyl Formamide to the solution. The pH was adjusted to 4.7 by glacial acetic acid, and DDW added up to a final volume of 200 ml. • 12. 5-Fluorouracil (5-FU) was supplied by Sigma (F-6627). Three working solutions were prepared at 19.5 μg/ml. 6.5 μg/ml and 1.95 μg/ml dissolved in 15% Ethanol/HBSS. […]

[2] = system: human epidermoid cancer cell line A-431; assay: MTT cell proliferation assay, human epidermoid (squamous) carcinoma cell line A-431; settings: A-431, 200 μg/ml; for % inhibition / inhibition at 200 µg/mL: 24 hr incubation, vs cells only; for Mean OD: MTT Optical Density at 570 nm; for inhibition at 200 µg/mL: Homo sapiens
Description: as §1, §2
(§3) • 1. Human melanoma cell line (A-2058, ATCC CRL11147) was obtained from ATCC, Bethesda, Md., USA. • 2. Human squamous (epidermoid) carcinoma cell line (A-431, ATCC CRL1555) was obtained from ATCC, Bethesda, Md. USA. • 3. Human basal cell carcinoma cell line (TE 354.T, ATCC CRL7762) was obtained from ATCC, Bethesda, Md., USA. • 4. Dulbecco's Modified Eagle's Medium (DMEM) was obtained from GIBCO (12100-038). 10% Foetal Bovine Serum (FBS), 100 U/ml Penicillin and […] Streptomycin were added before use. • 5. Penicillin-streptomycin solution, stored at −20° C. consisting of 10000 units/ml penicillin and 10 mg/ml streptomycin in 0.9% NaCl was obtained from Sigma (#P-0781). • 6. Trypsin-EDTA solution consisting of 0.25% Trypsin/EDTA was obtained from Invitrogen (#15400054). • 7. Phosphate buffered saline (PBS) was prepared in-house. • 8. Hanks Balanced Salt Solution (HBSS), stored at 4° C. was obtained from GIBCO (#14185-052). • 9. Foetal Bovine Serum (FBS) stored at −20° C. was obtained from GIBCO (#10091-148). • 10. MTT Reagent, 100 mg/vial, was obtained from Sigma (M-2128) and then dissolved in PBS at 10 mg/ml and stored at −20° C. A 5 mg/ml MTT solution was prepared in PBS and stored at 4° C. as the working solution. • 11. MU lysis buffer: 10% sodium dodecyl sulphate (SDS)/45% Dimethyl Formamide was prepared by dissolving 20 g SDS in 100 ml of double-distilled water (DDW), and then adding 90 ml of Dimethyl Formamide to the solution. The pH was adjusted to 4.7 by glacial acetic acid, and DDW added up to a final volume of 200 ml. • 12. 5-Fluorouracil (5-FU) was supplied by Sigma (F-6627). Three working solutions were prepared at 19.5 μg/ml. 6.5 μg/ml and 1.95 μg/ml dissolved in 15% Ethanol/HBSS. Final concentrations were 1.95 μg/ml (15 μM), 0.65 μg/ml (5 μM) and 0.195 μg/ml (1.5 μM).
(§4) • 1. Each of the cell lines was revived from cryostorage. • 2. Following initial propagation using the media described above (Characterisation of Test System, and Medium Preparation), the cell culture was subcultured using trypsin-EDTA. The media was removed and 5ml of the trypsin-EDTA solution added and incubated at 37° C. for 5 min or until all the cells had detached. The trypsin was neutralised by the addition of an equal volume of the relevant medium and centrifugation of the suspension at 300 g (1200 rpm) for 5 min at 4° C. • 3. […]

[3] = system: human basal carcinoma cell line TE 354.T; assay: MTT cell proliferation assay, human basal cell carcinoma cell line TE 354.T; settings: 200 μg/ml; for % inhibition / inhibition at 200 µg/mL: 24 hr incubation, vs cells only; for Mean OD: MTT Optical Density at 570 nm; for inhibition at 200 µg/mL: Homo sapiens
Description: as §1, §2, §3, §4

[4] = Homo sapiens, A2058, 24 h, A-2058, final conc. 200 μg/ml, 24 hr incubation, vs cells only
[5] = A-2058, final conc. 200 μg/ml, 24 hr incubation, vs cells only

Structure (SMILES)	Mean OD ([1]; A-2058, 200 μg/ml)	inhibition at 200 µg/mL [1, 4] [%]	% inhibition [1, 5]	further results
O=C(O)/C=C/C=C/c1ccccc1 [5-phenyl penta-2,4-dienoic acid, 5-phenylpenta-2,4-dienoic acid]	0.1548	23.1	–	–
COc1cc(/C=C/C(=O)OCc2ccccc2)ccc1O [Benzyl ferulate]	0.0040	98	completely killed all the melanoma cells	–
O=C(/C=C/c1ccc(O)c(O)c1)OCCc1ccccc1 [CAPE, caffeic acid phenethyl ester, reference compound]	0.1018	49.4	49.43%	–
C=C(C)CCOC(=O)/C=C/c1ccc(O)c(O)c1 [Complex 3M3BC, 3-methyl-3-butenyl caffeate]	–	–	–	Mean OD ([1]; A-2058, 20 μg/ml): 0.1070; % inhibition ([1]; A-2058, final conc. 20 μg/ml, 24 hr incubation, vs cells only): 46.85%; inhibition at 20 µg/mL ([1]; Homo sapiens, A2058, 24 h, A-2058, final conc. 20 μg/ml, 24 hr incubation, vs cells only): 46.8%; % inhibition [2]: very strong inhibitors of proliferation; Mean OD [2]: 0.0475; inhibition at 200 µg/mL [2]: 81.9%; % inhibition [3]: weak inhibitors of proliferation; Mean OD [3]: 0.2245; inhibition at 200 µg/mL [3]: 16.7%
CC(=O)OC1C(=O)c2c(O)cc(O)cc2OC1c1ccccc1 (stereo not drawn) [Pinobanksin-3-o-acetate, pinobanksin-3-acetate]	0.0777	61.4	61.38%	% inhibition [2]: very strong inhibitors of proliferation; Mean OD [2]: 0.0253; inhibition at 200 µg/mL [2]: 90.4%; % inhibition [3]: weak inhibitors of proliferation; Mean OD [3]: 0.2416; inhibition at 200 µg/mL [3]: 10.4%
COc1cc(O)c2c(=O)cc(-c3ccccc3)oc2c1 [Tectochrysin]	0.0272	–	86.5% and 86.48%	–
O=C(O)/C=C/c1ccc(O)cc1 [p-coumaric acid, reference compound]	0.2136	0	–	–
O=C1C[C@@H](c2ccccc2)Oc2cc(O)cc(O)c21 [pinocembrin]	0.0013	99.3	completely killed all the melanoma cells	–
